US20100189701A1, “METHODS AND COMPOSITIONS TO TREAT ARRHYTHMIAS” (priority 2007, published 2010)

Key:
MMP-7 = details: clinically relevant dosages; cited from earlier work
[1] = Sodium channel steady state inactivation (literature values); details: depolarization to −65 mV
Excerpt: Since slow conduction is an essential feature of reentrant cardiac arrhythmias, it seems worth considering other mammalian sodium channels that might have more favorable properties than the cardiac Na channel in circumstances that favor slow conduction. One such circumstance is membrane depolarization and so the voltage dependence of steady state inactivation is of interest. Cohen Table I provides a comparison of the midpoints for steady state inactivation and slope factor for the cardiac and skeletal muscle sodium channels and a specific mutant of the skeletal muscle channel (G1306E). […] Thus, if cardiac muscle is depolarized to −65 mV, virtually all cardiac sodium channels would be inactivated, while a similar depolarization would leave almost half of normal skeletal muscle sodium channels available. This observation thus relates to a method of the present invention that the use of alternative sodium channels with more favorable biophysical properties serve as a useful antiarrhythmic therapy.
Besides existing sodium channels, much has been learned from structure-function studies in which specific amino acids have been mutated. An extensive study of the S4 domain of the skeletal muscle sodium channel was conducted by Haywood et al. (1996), J. Gen. Physiol. 107, 559-576 in an attempt to understand the origins of enhanced excitability in inherited human myotonia. […]

[2] = cited from earlier work
Cx43 [3] = assay: Western blot of HeLa cells expressing Cx43 exposed to 4PB; format: cell-based; details: HeLa cells transfected with Cx43, increasing doses
Excerpt: FIG. 34 illustrates a Western blot where HeLa cells expressing Cx43 have been exposed to increasing doses of 4PB.
4PB is an FDA approved drug that can be administered orally, which is being tested for effectiveness in spinal muscular atrophy (Wirth et al., 2006; Brahe et al., 2005), and cystic fibrosis (Singh et al., 2006). […] In addition, stress in the form of mildly elevated temperatures up-regulates connexin expression and increases the total number of functional channels (VanSlyke and Musil, 2005). The chemical chaperone (4PB), a known inhibitor of histone deacetylase, an enzyme associated with inactivation of gene transcription, increases Cx43 production at concentrations in the mM range and exposure times of hours. Not only is Cx43 production elevated 2-5 fold but enhanced dye transfer is observed (Asklund et al., 2004). […] The present inventors have determined that the time course of coupling between hMSCs or model cells with myocytes reaches 50% of maximum within 48 hours.

Cx43 [4] = details: mM range, exposure times of hours; cited from earlier work
Cx43, 40, 45 = assay: Example 4: chemical chaperone treatment of hMSC/myocyte co-culture, connexin expression and coupling; format: cell-based; details: initial results
Method: hMSCs and myocytes in co-culture are treated with a chemical chaperone (4 PB, 4-Phenylbutric acid, FDA approved) or zp123 (Rotigaptide) a synthetic antiarrhythmia peptide, that increases Cx43 mediated coupling. Western blot analysis and RT-PCR will be used to test protein abundance and expression for Cx43, 40, 45. Dual whole cell patch clamp will be used to determine the time course of junctional coupling. Western blot analysis and RT-PCR to test for protein abundance and expression for Cx43, 40, 45. The effects of 4PB and zp123 on hMSCs alone and myocytes alone will be assesed. Co-culturing of hMSCS and myocytes (atrial or ventricular) will also be done and a vital dye (Valiunas et al., 2005) will be used on hMSCs so that after defined time intervals of co-culture fluorescence activated cell sorting can be used to isolate the cell types and Western blot analysis and RT-PCR can be performed to assess abundance and expression respectively. A peptidase, such as dipeptidyl-peptidase or equivalent, will be used to cleave any zp123 that is secreted into the extracellular space. Dual whole cell patch clamp will be used to determine the time course of junctional coupling over a 96 hour interval at 24, 48 and 96 hours respectively. […] This should translate into enhanced coupling in the form of increased junctional conductance relative to controls.

HCN2 induced current = assay: Autonomic agonists on HCN2 induced current in hMSCs; format: cell-based
native SCN5A channel = native SCN5A channel (Homo sapiens, UniProt Q14524); details: cited from earlier work
native SCN5A channel, sequence (Q14524 whole entry): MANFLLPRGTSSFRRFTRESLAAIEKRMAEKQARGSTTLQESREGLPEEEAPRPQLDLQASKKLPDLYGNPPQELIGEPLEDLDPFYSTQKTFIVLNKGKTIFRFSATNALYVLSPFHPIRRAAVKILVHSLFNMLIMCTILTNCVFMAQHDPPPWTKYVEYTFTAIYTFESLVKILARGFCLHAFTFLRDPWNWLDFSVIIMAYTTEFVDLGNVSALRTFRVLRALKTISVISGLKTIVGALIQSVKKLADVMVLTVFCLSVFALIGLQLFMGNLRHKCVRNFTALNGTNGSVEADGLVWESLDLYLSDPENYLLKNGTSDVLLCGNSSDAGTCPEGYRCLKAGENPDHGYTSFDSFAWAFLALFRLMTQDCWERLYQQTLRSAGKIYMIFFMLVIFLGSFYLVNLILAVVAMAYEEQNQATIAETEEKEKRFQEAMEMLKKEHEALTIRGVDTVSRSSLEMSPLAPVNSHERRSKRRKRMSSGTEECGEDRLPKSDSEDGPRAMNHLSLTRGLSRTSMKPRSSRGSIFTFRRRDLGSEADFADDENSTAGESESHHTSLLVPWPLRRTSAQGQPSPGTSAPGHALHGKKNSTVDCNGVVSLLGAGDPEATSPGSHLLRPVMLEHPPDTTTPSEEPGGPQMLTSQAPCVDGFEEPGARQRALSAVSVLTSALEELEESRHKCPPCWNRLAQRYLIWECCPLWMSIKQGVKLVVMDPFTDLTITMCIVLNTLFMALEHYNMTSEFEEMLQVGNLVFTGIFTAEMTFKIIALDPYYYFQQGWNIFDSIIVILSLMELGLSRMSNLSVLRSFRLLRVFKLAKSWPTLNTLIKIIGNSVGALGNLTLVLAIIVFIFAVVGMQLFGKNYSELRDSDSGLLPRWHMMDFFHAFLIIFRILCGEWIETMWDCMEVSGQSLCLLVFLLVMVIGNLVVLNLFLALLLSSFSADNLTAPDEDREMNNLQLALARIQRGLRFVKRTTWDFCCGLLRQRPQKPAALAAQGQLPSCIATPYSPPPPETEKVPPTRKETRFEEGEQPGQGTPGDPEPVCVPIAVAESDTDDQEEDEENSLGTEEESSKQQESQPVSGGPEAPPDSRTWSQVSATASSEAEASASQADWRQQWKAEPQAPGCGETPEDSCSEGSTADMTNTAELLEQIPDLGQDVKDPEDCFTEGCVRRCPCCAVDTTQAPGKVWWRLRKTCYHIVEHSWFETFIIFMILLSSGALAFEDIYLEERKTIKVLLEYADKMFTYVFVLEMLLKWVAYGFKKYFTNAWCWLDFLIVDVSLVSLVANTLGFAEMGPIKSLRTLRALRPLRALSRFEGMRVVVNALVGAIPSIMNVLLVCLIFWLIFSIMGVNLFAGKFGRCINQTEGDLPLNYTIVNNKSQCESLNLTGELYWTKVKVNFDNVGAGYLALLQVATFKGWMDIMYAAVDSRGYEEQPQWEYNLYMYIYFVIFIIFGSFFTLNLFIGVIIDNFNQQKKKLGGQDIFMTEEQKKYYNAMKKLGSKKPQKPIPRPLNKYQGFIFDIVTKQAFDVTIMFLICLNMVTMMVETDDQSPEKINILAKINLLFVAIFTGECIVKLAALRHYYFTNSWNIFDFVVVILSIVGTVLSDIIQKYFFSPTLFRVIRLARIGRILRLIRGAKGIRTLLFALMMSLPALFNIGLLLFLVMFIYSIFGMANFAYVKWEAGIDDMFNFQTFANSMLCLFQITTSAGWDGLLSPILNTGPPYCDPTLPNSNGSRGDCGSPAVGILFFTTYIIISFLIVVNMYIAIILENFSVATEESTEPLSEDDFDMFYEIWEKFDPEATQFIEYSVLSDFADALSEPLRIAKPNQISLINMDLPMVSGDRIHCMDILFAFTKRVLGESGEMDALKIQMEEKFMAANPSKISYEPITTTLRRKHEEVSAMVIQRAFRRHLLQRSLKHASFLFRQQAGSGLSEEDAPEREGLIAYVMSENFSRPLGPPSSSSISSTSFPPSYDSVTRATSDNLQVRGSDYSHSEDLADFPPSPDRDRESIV

[5] = tested on: neonatal and adult rat ventricular myocytes; details: adenoviral expression; cited from earlier work
hMSCs = assay: Patch clamp of If in hMSCs transfected with mHCN2; format: cell-based, human
Excerpt: FIG. 4: Example of loading hMSC with a gene of interest, studying it biophysically and determining its effect on the heart. Panels A-C study functional expression of If in hMSCs transfected via electroporation with mHCN2 gene. If was expressed in hMSCs transfected with the mHCN2 gene (B) but not in nontransfected stem cells (A). C, Fit by the Boltzmann equation to the normalized tail currents of If gives a midpoint of −91.8+/−0.9 mV and a slope of 8.8+/−0.5 mV (n=9). If was fully activated around −140 mV with an activation threshold of −60 mV. […] Voltage protocol was to hold at −30 mV and hyperpolarize for 1.5 seconds to voltages between −40 and −160 mV in 10-mV increments followed by a 1.5-second voltage step to +20 mV to record the tail currents. Panels D-E show function of hMSCs loaded with HCN2 gene 10 days after injection into canine LV anterior wall in dog in complete heart block. Panels D, placebo experiment, dog injected with saline. […] Panels E, dog injected with approximately 1.2 million hMSCs loaded with HCN2.

In the case of COc1cc2ncnc(Nc3ccc(F)c(Cl)c3)c2cc1OCCCN1CCOCC1 [Gefitinib], the MMP-7 activity (MMP-7) is given as “inhibits MMP-7 activity”.

In the case of “skM1(G1306E): specific mutant of the skeletal muscle sodium channel”, the sodium channels available [1] is given as “more than 70%”, the inactivation midpoint ([2]; as stated in Example 16 group description) is given as −55 mV and the activation midpoint ([2]; as worded) is given as −57 mV. For the same molecule, the Slope factor ([2]; steady state inactivation) was −5.2 mV.

In the case of O=C(O)CCCc1ccccc1 [4PB, 4-Phenylbutric acid], the Cx43 expression (Cx43 [3]) is listed as “up-regulates Cx43”, the Cx43 production elevated (Cx43 [4]) is listed as 2-5 fold and the connexin up-regulation (Cx43, 40, 45) is listed as “causes up-regulation”.

With CC(C)NCC(O)c1ccc(O)c(O)c1 (centres unmarked) [isoproterenol] the “effect on expressed HCN2 current” value (HCN2 induced current) was “has a direct effect on the expressed current”.

For [Cd+2] [Cd^2+], the Kd (native SCN5A channel) is listed as “a few hundred”.

B1: ERG3: delayed rectifier with steady state window current (protein, UniProt Q9NS40 1-1196, looked up)
Voltage-gated inwardly …: MPVRRGHVAPQNTFLGTIIRKFEGQNKKFIIANARVQNCAIIYCNDGFCEMTGFSRPDVMQKPCTCDFLHGPETKRHDIAQIAQALLGSEERKVEVTYYHKNGSTFICNTHIIPVKNQEGVAMMFIINFEYVTDNENAATPERVNPILPIKTVNRKFFGFKFPGLRVLTYRKQSLPQEDPDVVVIDSSKHSDDSVAMKHFKSPTKESCSPSEADDTKALIQPSKCSPLVNISGPLDHSSPKRQWDRLYPDMLQSSSQLSHSRSRESLCSIRRASSVHDIEGFGVHPKNIFRDRHASEDNGRNVKGPFNHIKSSLLGSTSDSNLNKYSTINKIPQLTLNFSEVKTEKKNSSPPSSDKTIIAPKVKDRTHNVTEKVTQVLSLGADVLPEYKLQTPRINKFTILHYSPFKAVWDWLILLLVIYTAIFTPYSAAFLLNDREEQKRRECGYSCSPLNVVDLIVDIMFIIDILINFRTTYVNQNEEVVSDPAKIAIHYFKGWFLIDMVAAIPFDLLIFGSGSDETTTLIGLLKTARLLRLVRVARKLDRYSEYGAAVLMLLMCIFALIAHWLACIWYAIGNVERPYLTDKIGWLDSLGQQIGKRYNDSDSSSGPSIKDKYVTALYFTFSSLTSVGFGNVSPNTNSEKIFSICVMLIGSLMYASIFGNVSAIIQRLYSGTARYHMQMLRVKEFIRFHQIPNPLRQRLEEYFQHAWTYTNGIDMNMVLKGFPECLQADICLHLNQTLLQNCKAFRGASKGCLRALAMKFKTTHAPPGDTLVHCGDVLTALYFLSRGSIEILKDDIVVAILGKNDIFGEMVHLYAKPGKSNADVRALTYCDLHKIQREDLLEVLDMYPEFSDHFLTNLELTFNLRHESAKADLLRSQSMNDSEGDNCKLRRRKLSFESEGEKENSTNDPEDSADTIRHYQSSKRHFEEKKSRSSSFISSIDDEQKPLFSGIVDSSPGIGKASGLDFEETVPTSGRMHIDKRSHSCKDITDMRSWERENAHPQPEDSSPSALQRAAWGISETESDLTYGEVEQRLDLLQEQLNRLESQMTTDIQTILQLLQKQTTVVPPAYSMVTAGSEYQRPIIQLMRTSQPEASIKTDRSFSPSSQCPEFLDLEKSKLKSKESLSSGVHLNTASEDNLTSLLKQDSDLSLELHLRQRKTYVHPIRHPSLPDSSLSTVGIVGLHRHVSDPGLPGK
With B1 the “potential of maximal steady state conductance” value (Xenopus oocytes) was −50 mV and the “steady state window conductance vs other ERG family members” value (Xenopus oocytes) was “largest steady state conductance”.

B2: mHCN2: pacemaker channel gene (protein, UniProt O88703 1-863, looked up)
Potassium/sodium …: MDARGGGGRPGDSPGTTPAPGPPPPPPPPAPPQPQPPPAPPPNPTTPSHPESADEPGPRARLCSRDSACTPGAAKGGANGECGRGEPQCSPEGPARGPKVSFSCRGAASGPSAAEEAGSEEAGPAGEPRGSQASFLQRQFGALLQPGVNKFSLRMFGSQKAVEREQERVKSAGAWIIHPYSDFRFYWDFTMLLFMVGNLIIIPVGITFFKDETTAPWIVFNVVSDTFFLMDLVLNFRTGIVIEDNTEIILDPEKIKKKYLRTWFVVDFVSSIPVDYIFLIVEKGIDSEVYKTARALRIVRFTKILSLLRLLRLSRLIRYIHQWEEIFHMTYDLASAVMRICNLISMMLLLCHWDGCLQFLVPMLQDFPSDCWVSINNMVNHSWSELYSFALFKAMSHMLCIGYGRQAPESMTDIWLTMLSMIVGATCYAMFIGHATALIQSLDSSRRQYQEKYKQVEQYMSFHKLPADFRQKIHDYYEHRYQGKMFDEDSILGELNGPLREEIVNFNCRKLVASMPLFANADPNFVTAMLTKLKFEVFQPGDYIIREGTIGKKMYFIQHGVVSVLTKGNKEMKLSDGSYFGEICLLTRGRRTASVRADTYCRLYSLSVDNFNEVLEEYPMMRRAFETVAIDRLDRIGKKNSILLHKVQHDLSSGVFNNQENAIIQEIVKYDREMVQQAELGQRVGLFPPPPPPQVTSAIATLQQAVAMSFCPQVARPLVGPLALGSPRLVRRAPPGPLPPAASPGPPAASPPAAPSSPRAPRTSPYGVPGSPATRVGPALPARRLSRASRPLSASQPSLPHGVPAPSPAASARPASSSTPRLGPAPTARTAAPSPDRRDSASPGAASGLDPLDSARSRLSSNL
For B2, the “voltage dependence of activation, neonatal vs adult myocytes” value [5] is listed as “about 20 mV”, the activation threshold (hMSCs) is listed as −60 mV and the “voltage of full activation” value (hMSCs) is listed as “around −140 mV”. For the same molecule, the “midpoint of If activation (Boltzmann fit to tail currents)” value (hMSCs; hMSCs transfected via electroporation, n=9) was −91.8+/−0.9 mV and the “slope of If activation” value (hMSCs; n=9) was 8.8+/−0.5 mV.
